Experimental data: patent US20180008573A1, “METHODS AND COMPOSITIONS FOR REDUCING DAMAGE ASSOCIATED WITH OXIDATIVE PHOSPHORYLATION” (USANA Health Sciences, Inc., priority 2016, published 2018)

What was measured:
human NF-κB = experiment: NF-κB antagonist reporter assay (NF-κB GRE-luciferase, HEK293 cells); type: cell-based;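 also: reporter cells carry native NF-κB receptor with firefly luciferase under upstream response elements, with a vehicle control included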
NF-κB reporter cells = experiment: Live cell multiplex assay in the NF-κB antagonist assay; type: cell-based, human
Description: A vehicle control was prepared.

human PPARγ = target: T1, human PPARγ (Homo sapiens, UniProt P37231); experiment: PPARγ agonist reporter assay (Gal4 hybrid receptor, luciferase, CHO cells); type: cell-based
T1 construct: expressed in transfected cells; host or cells: CHO
T1 sequence (P37231 238-503 limits assumed): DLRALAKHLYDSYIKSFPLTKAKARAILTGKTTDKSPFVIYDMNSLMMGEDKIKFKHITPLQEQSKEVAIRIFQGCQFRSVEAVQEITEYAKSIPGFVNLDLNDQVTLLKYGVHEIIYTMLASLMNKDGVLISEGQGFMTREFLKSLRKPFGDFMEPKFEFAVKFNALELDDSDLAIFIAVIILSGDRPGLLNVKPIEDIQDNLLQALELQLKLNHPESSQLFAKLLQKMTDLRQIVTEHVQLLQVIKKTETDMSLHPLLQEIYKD

human PPARα = target: T2, human PPARα (Homo sapiens, UniProt Q07869); experiment: PPARα agonist reporter assay (Gal4 hybrid receptor, luciferase, CHO cells); type: cell-based
T2 construct: expressed in transfected cells; host or cells: CHO
T2 sequence (Q07869 239-466 limits assumed): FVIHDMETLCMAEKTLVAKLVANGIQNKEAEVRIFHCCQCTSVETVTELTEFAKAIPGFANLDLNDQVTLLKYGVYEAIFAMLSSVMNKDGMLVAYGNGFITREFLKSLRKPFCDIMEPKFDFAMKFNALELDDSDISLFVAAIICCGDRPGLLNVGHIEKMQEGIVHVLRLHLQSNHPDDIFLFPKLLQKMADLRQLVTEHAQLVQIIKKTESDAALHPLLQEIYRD

human PPARδ = target: T3, human PPARδ (Homo sapiens, UniProt Q03181); experiment: PPARδ agonist reporter assay (Gal4 hybrid receptor, luciferase, CHO cells); type: cell-based
T3 construct: expressed in transfected cells; host or cells: CHO
T3 sequence (Q03181 211-439 limits assumed): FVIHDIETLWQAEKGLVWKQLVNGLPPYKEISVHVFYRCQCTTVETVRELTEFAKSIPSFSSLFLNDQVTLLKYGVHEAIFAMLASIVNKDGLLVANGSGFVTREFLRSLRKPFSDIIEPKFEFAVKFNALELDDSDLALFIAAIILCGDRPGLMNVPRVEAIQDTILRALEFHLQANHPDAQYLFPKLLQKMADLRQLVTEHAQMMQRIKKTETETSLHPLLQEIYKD

Nrf2 = target: T4, Nrf2 (Homo sapiens, UniProt Q16236); experiment: Nrf2 agonist reporter assay (native receptor, ARE-luciferase, CV1 cells); type: cell-based; set-up: comprising either the native receptor (Nrf2 and NF-κB); expressed in transfected cells; host or cells: CV1
T4 sequence (Q16236 1-605): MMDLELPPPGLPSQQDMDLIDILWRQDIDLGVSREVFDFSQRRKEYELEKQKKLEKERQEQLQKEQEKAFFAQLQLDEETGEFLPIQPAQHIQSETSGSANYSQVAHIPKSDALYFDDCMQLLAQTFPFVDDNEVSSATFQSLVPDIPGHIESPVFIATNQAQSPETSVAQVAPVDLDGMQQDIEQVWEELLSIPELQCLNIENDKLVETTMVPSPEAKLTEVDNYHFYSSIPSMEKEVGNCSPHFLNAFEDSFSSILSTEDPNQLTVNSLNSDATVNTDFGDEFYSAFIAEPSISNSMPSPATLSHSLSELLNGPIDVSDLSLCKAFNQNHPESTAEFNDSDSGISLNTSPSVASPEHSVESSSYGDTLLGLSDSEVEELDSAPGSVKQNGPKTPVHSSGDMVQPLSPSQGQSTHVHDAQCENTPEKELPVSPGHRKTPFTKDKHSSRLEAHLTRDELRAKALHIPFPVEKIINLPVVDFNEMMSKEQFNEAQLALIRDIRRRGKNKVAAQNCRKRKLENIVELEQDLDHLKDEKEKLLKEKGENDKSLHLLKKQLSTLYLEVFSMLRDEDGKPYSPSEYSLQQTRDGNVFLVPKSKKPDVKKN

## COc1ccc([C@@H]2CC(=O)c3c(O)cc(O)cc3O2)cc1O [Hesperetin, (S)-2,3-Dihydro-5,7-dihydroxy-2-(3-hydroxy-4-methoxyphenyl)-4H-1-benzopyran-4-one]
Human NF-κB; 0.043 μg/ml active ingredient
  NF-κB % Inhibition: −11%
Human NF-κB; 0.389 μg/ml active ingredient
  NF-κB % Inhibition: −2.1%
Human NF-κB; 1.167 μg/ml active ingredient
  NF-κB % Inhibition: 14%
Human NF-κB; 3.5 μg/ml active ingredient
  NF-κB % Inhibition: 39%
NF-κB reporter cells; 0.043 μg/ml active ingredient
  NF-κB % Live Cell: 98%
NF-κB reporter cells; 0.389 μg/ml active ingredient
  NF-κB % Live Cell: 99%
NF-κB reporter cells; 1.167 μg/ml active ingredient
  NF-κB % Live Cell: 98%
NF-κB reporter cells; 3.5 μg/ml active ingredient
  NF-κB % Live Cell: 96%
Human PPARγ; 0.043 μg/ml active ingredient
  PPARγ Fold-Activation: 1.0 fold
Human PPARγ; 0.389 μg/ml active ingredient
  PPARγ Fold-Activation: 1.1 fold
Human PPARγ; 1.167 μg/ml active ingredient
  PPARγ Fold-Activation: 1.1 fold
Human PPARγ; 3.5 μg/ml active ingredient
  PPARγ Fold-Activation: 0.55 fold
Human PPARα; 0.043 μg/ml active ingredient
  PPARα Fold-Activation: 1.4 fold
Human PPARα; 0.389 μg/ml active ingredient
  PPARα Fold-Activation: 1.2 fold
Human PPARα; 1.167 μg/ml active ingredient
  PPARα Fold-Activation: 1.0 fold
Human PPARα; 3.5 μg/ml active ingredient
  PPARα Fold-Activation: 0.79 fold
Human PPARδ; 0.043 μg/ml active ingredient
  PPARδ Fold-Activation: 1.1 fold
Human PPARδ; 0.389 μg/ml active ingredient
  PPARδ Fold-Activation: 1.0 fold
Human PPARδ; 1.167 μg/ml active ingredient
  PPARδ Fold-Activation: 1.1 fold
Human PPARδ; 3.5 μg/ml active ingredient
  PPARδ Fold-Activation: 0.89 fold
Nrf2; 0.043 μg/ml active ingredient
  Nrf2 Fold-Activation: 1.4 fold
Nrf2; 0.389 μg/ml active ingredient
  Nrf2 Fold-Activation: 1.3 fold
Nrf2; 1.167 μg/ml active ingredient
  Nrf2 Fold-Activation: 1.5 fold
Nrf2; 3.5 μg/ml active ingredient
  Nrf2 Fold-Activation: 0.94 fold
